Legend:
anti-lysozyme IgG = assay: Immunoenzymatic measurement of anti-lysozyme IgG in serum of mice immunized against lysozyme; format: in vivo, C57BL/6 mice; conditions: for Optical densities +/- SD, anti-lysozyme IgG, 1/180 serial dilution: serum 1/180; for Optical densities +/- SD, anti-lysozyme IgG, 1/180 serial dilution / Optical densities +/- SD, anti-lysozyme IgG, 1/540 serial dilution / Optical densities +/- SD, anti-lysozyme IgG, first serial dilution: s.c., mean of 5 mice; for Optical densities +/- SD, anti-lysozyme IgG, 1/180 serial dilution / Optical densities +/- SD, anti-lysozyme IgG, 1/540 serial dilution: doses and timing as E1; for Optical densities +/- SD, anti-lysozyme IgG, 1/540 serial dilution: serum 1/540; for Optical densities +/- SD, anti-lysozyme IgG, first serial dilution: serum dilution not given, PREG 0,5 g/kg, DHEA 1,0 g/kg, ADIOL 125 mg/kg 1 hour before lysozyme, 7-hydroxy-PREG and 7-hydroxy-DHEA 6,25 mg/kg, 7β-hydroxy-DHEA 50,0 mg/kg, 7- and 7β-hydroxy-ADIOL 25,0 mg/kg with lysozyme; for Optical densities +/- SD, anti-lysozyme IgG, first serial dilution (*): dilution not given, PREG 0,5 g/kg 1 hour before; for Effect on serum anti-lysozyme IgG (in words): steroid administered s.c. simultaneously with lysozyme
Description: The immunity effector effect was tested by subcutaneous injection concomitantly with that of an antigen and the 7-alpha- or 7-beta-hydroxylated derivative into C57BL/6 mice according to a standard immunization protocol (Methods in Enzymology (1980), vol. 70).
The effect of the compound as cellular immunity effector is measured by the quantity of circulating IgG directed against the antigen 21 days after the injection and after a booster injection 14 days layer.
Thirty five groups of five 6-weeks old C57BL/6 mice are given a subcutaneous injection of 200 ug of hen egg white lysozyme on days one and fourteen of the immunization protocol. Solutions of DHEA (Sigma D-4500) in dimethyl sulfoxide (DMSO) are injected in the same manner at variable times before the first injection of lysozyme. Amounts ranging from 0.25 and 2 g/kg are used. Ten other groups of 5 mice are given a subcutaneous injection of 6.25 to 50 mg/kg of 7-alpha-hydroxy-DHEA or 7-beta-hydroxy-DHEA dissolved in DMSO at the same time as the first lysozyme injection. Two groups receive only DMSO with lysozyme (controls). The blanks correspond to one group of 5 mice and are not given an injection.
Three weeks after the first injections the animals, then aged 9 weeks, are decapitated. The blood of each animal is collected and the presence of anti-lysozyme G immunoglobulins (IgG) is measured in serial dilutions of the sera by an immunoenzymatic titration using goat anti-mouse (Fc) IgG immunoglobulin labelled with peroxidase.
A group of 5 mice is given the subcutaneous injection of 125 mg/kg of 5-androstene-3-beta, 17-beta-diol (ADIOL) one hour prior to the first injection of lysozyme, and two groups of 5 mice are treated with 25 mg/kg of 7-alpha-hydroxy-ADIOL or 7-beta-hydroxy-ADIOL at the time of the first lysozyme injection.
DHEA or PREG or ADIOL is injected subcutaneously 1 hour before the first lysozyme injection. The 7-hydroxylated derivatives are administered simultaneously with the lysozyme injection. The immunoenzymatic measurement of the anti-lysozyme IgGs in the serial dilutions of the sera of each animal makes use of goat anti-mouse (Fc) IgG immunoglobulin, labelled with peroxidase in 96-well plates treated with lysozyme. The mean value of the optical densities measured in each group of 5 mice is calculated as well as the standard deviation (SD).

[1] = target: T1, nuclear binding of tritiated dexamethazone (glucocorticoid receptors) (Mus musculus, UniProt P06537); assay: Displacement of the nuclear binding of tritiated dexamethazone in isolated liver, brain, thymus and spleen cells; design: species or system C57BL/6 mouse; conditions: for Displacement coefficient for nuclear binding of tritiated dexamethazone, Liver: liver cells, 100-fold excess of steroid over 2-80 nM 3H-dexamethazone, 60 min; for Displacement coefficient for nuclear binding of tritiated dexamethazone, Liver / Displacement coefficient for nuclear binding of tritiated dexamethazone, Brain / Displacement coefficient for nuclear binding of tritiated dexamethazone, Spleen / Displacement coefficient for nuclear binding of tritiated dexamethazone, Thymus: no competitor = zero, unlabelled dexamethazone = 100, mean of triplicate; for Displacement coefficient for nuclear binding of tritiated dexamethazone, Brain: brain cells; for Displacement coefficient for nuclear binding of tritiated dexamethazone, Spleen: spleen cells; for Displacement coefficient for nuclear binding of tritiated dexamethazone, Thymus: thymus cells
T1 construct: The liver, brain, spleen and thymus are excised and the cells of each organ are recovered; from tissue; host or cells: isolated cells of liver, brain, spleen and thymus of metyrapone-treated C57BL/6 mice
T1 sequence (P06537 1-792): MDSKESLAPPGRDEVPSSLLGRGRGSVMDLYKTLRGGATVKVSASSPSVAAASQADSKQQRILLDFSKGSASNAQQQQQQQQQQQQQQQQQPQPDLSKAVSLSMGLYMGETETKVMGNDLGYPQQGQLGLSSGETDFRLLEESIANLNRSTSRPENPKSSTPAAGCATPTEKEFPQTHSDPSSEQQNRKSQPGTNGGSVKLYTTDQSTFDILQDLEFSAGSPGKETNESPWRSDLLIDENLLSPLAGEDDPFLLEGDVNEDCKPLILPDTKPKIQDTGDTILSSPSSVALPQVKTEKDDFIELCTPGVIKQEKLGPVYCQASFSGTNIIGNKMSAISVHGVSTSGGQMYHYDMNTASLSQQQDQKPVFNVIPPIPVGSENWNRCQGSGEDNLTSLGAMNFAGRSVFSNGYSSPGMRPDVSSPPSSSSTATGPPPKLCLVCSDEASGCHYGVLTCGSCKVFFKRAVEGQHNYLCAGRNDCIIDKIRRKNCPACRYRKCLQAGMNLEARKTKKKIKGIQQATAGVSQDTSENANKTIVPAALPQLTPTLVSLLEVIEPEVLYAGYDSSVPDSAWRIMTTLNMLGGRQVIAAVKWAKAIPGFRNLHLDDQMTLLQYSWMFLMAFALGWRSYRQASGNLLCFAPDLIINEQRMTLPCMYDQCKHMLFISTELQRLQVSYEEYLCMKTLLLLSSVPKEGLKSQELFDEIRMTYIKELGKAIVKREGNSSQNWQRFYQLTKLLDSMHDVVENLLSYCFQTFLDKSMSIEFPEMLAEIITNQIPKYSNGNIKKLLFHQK
Description: The isolated hepatocytes are incubated for 1 hour at room temperature with increasing concentrations (2-80 nM) of ^3 H-dexamethazone (DEX*). […] The hepatocyte nuclei are then isolated and purified and the radioactivity corresponding to the DEX* still bound is measured and expressed in cpm/10 ug of DNA. The area under the curve DEX* corresponds to zero displacement of the radioactivity. The area under the curve DEX*/DEX which corresponds to the displacement of radioactivity by the same molecule is taken arbitrarily as 100. The areas under the curve obtained with the other steroids makes it possible to calculate by interpolation between the areas zero and 100 their displacement coefficients for the nuclear binding of DEX*.
The mice are anesthetized with ether and bled, then perfused intracardially with physiological serum containing collagenase B (0.03 g/100 ml) for 10 minutes. […] The quantities of cells obtained are estimated on the base of the measurement of the DNA contained in the preparations.
The nuclei are recovered and their radioactive content measured as described by the authors cited above.
The area under the curve of tritiated dexamethazone alone is measured and taken as zero. […] The displacement coefficients found for each of the other steroids are calculated by interpolation on this scale, each result being the mean of a triplicate determination.

[2] = * calculated from measurements on higher dilutions of the serum, 7-hydroxy-PREG 6,25 mg/kg with lysozyme

Row | SMILES | Optical densities +/- SD, anti-lysozyme IgG, 1/180 serial dilution (anti-lysozyme IgG) | Optical densities +/- SD, anti-lysozyme IgG, 1/540 serial dilution (anti-lysozyme IgG) | Displacement coefficient for nuclear binding of tritiated dexamethazone, Liver [1] | further results
1 | C[C@]12CC[C@H]3[C@@H]([C@H](O)C=C4C[C@@H](O)CC[C@@]43C)[C@@H]1CC[C@@H]2O [7-hydroxy-ADIOL, androst-5-ene-3-beta, 7-alpha, 17-beta-triol] | 0,14 ± 0,01 | 0,11 ± 0,01 | 88 | Optical densities +/- SD, anti-lysozyme IgG, first serial dilution (anti-lysozyme IgG): 0,15 ± 0,02; Displacement of tritiated dexamethazone from nuclear binding / anti-glucocorticoid action (in words) ([1]; 100-fold excess of steroid): demonstrates its anti-glucocorticoid effect
2 | CC(=O)[C@H]1CC[C@H]2[C@@H]3[C@H](O)C=C4C[C@@H](O)CC[C@]4(C)[C@H]3CC[C@]12C [7-hydroxy-PREG, 7-alpha-hydroxy-PREG] | – | 0,77 ± 0,05 | 34 | Optical densities +/- SD, anti-lysozyme IgG, first serial dilution (*) (anti-lysozyme IgG; [2]): 4,46 ± 0,30; Optical densities +/- SD, anti-lysozyme IgG, 1/180 serial dilution (*) (anti-lysozyme IgG; * calculated from measurements on higher dilutions of the serum, 1/180, 7-hydroxy-PREG 6,25 mg/kg with lysozyme): 2,20 ± 0,14; Displacement coefficient for nuclear binding of tritiated dexamethazone, Brain ([1]; 100-fold excess of steroid): 38; Displacement coefficient for nuclear binding of tritiated dexamethazone, Spleen ([1]; 100-fold excess of steroid): 81; Displacement coefficient for nuclear binding of tritiated dexamethazone, Thymus ([1]; 100-fold excess of steroid): 94
3 | C[C@]12CC[C@H]3[C@@H]([C@@H](O)C=C4C[C@@H](O)CC[C@@]43C)[C@@H]1CC[C@@H]2O [7β-hydroxy-ADIOL, androst-5-ene-3-beta,7-beta, 17-beta-triol] | 0,18 ± 0,02 | 0,12 ± 0,01 | – | Optical densities +/- SD, anti-lysozyme IgG, first serial dilution (anti-lysozyme IgG): 0,18 ± 0,06
4 | C[C@]12CC[C@H](O)CC1=C[C@H](O)[C@@H]1[C@@H]2CC[C@]2(C)C(=O)CC[C@@H]12 [7β-hydroxy-DHEA, 3-beta, 7-beta-dihydroxy-androst-5-en-17-one] | 0,31 ± 0,04 | 0,13 ± 0,01 | 80 | Optical densities +/- SD, anti-lysozyme IgG, first serial dilution (anti-lysozyme IgG): 0,46 ± 0,06; Effect on serum anti-lysozyme IgG (in words) (anti-lysozyme IgG; listed as 7-beta-OH-DHEA): effect equivalent to that of DHEA injected 1 hour before the antigen, but at doses 20 times lower; Effect on serum anti-lysozyme IgG (in words) (anti-lysozyme IgG; listed as 7-beta-hydroxy-DHEA): response identical with that of 1 g/kg of DHEA administered 1 hour prior to that of lysozyme; Displacement coefficient for nuclear binding of tritiated dexamethazone, Brain ([1]; 100-fold excess of steroid): 65
5 | CC(=O)[C@H]1CC[C@H]2[C@@H]3CC=C4C[C@@H](O)CC[C@]4(C)[C@H]3CC[C@]12C [PREG, 3-beta-hydroxy-5-pregnen-20-one, reference compound] | 1,83 ± 0,48 | 0,56 ± 0,15 | – | Optical densities +/- SD, anti-lysozyme IgG, first serial dilution (*) (anti-lysozyme IgG; [2]): 4,67 ± 1,21; Effect on serum concentrations of anti-lysozyme IgG (in words) (anti-lysozyme IgG; steroid administered s.c. at least one hour prior to the injection of lysozyme): increase the serum concentrations of anti-lysozyme IgG
6 | C[C@]12CC[C@H](O)C[C@@H]1[C@@H](O)C[C@@H]1[C@@H]2CC[C@]2(C)C(=O)CC[C@@H]12 [Steroid 6α-OH-ISOA, 3-beta, 6-alpha-dihydroxy-5-alpha-androstane-17-one] | – | – | 63 | –
7 | C[C@]12CC[C@H](O)CC1=CC(=O)[C@@H]1[C@@H]2CC[C@]2(C)C(=O)CC[C@@H]12 [Steroid 7-oxo-DHEA, 3-beta-hydroxy-5-androsten-7,17-dione] | – | – | 28 | –
8 | C[C@]12CC[C@H](O)C[C@@H]1CC(=O)[C@@H]1[C@@H]2CC[C@]2(C)C(=O)CC[C@@H]12 [Steroid 7-oxo-ISOA, 3-beta-hydroxy-5-alpha-androstane-7,17-dione] | – | – | 84 | –
9 | CC(=O)[C@H]1CC[C@H]2[C@@H]3C(=O)C=C4C[C@@H](O)CC[C@]4(C)[C@H]3CC[C@]12C [Steroid 7-oxo-PREG, 3-beta-hydroxy-5-pregnen-7,20-dione] | – | – | 35 | –
10 | C[C@]12CC[C@H](O)C[C@@H]1C[C@@H](O)[C@@H]1[C@@H]2CC[C@]2(C)[C@@H](O)CC[C@@H]12 [Steroid 7α-OH-ADIOL, 5-alpha-androstane-3-beta, 7-alpha, 17-beta-triol] | – | – | 83 | Displacement coefficient for nuclear binding of tritiated dexamethazone, Brain ([1]; 100-fold excess of steroid): 96; Displacement coefficient for nuclear binding of tritiated dexamethazone, Spleen ([1]; 100-fold excess of steroid): 125; Displacement coefficient for nuclear binding of tritiated dexamethazone, Thymus ([1]; 100-fold excess of steroid): 96
11 | C[C@]12CC[C@H](O)C[C@@H]1C[C@@H](O)[C@@H]1[C@@H]2CC[C@]2(C)C(=O)CC[C@@H]12 [Steroid 7α-OH-ISOA, 3-beta, 7-alpha-dihydroxy-5-alpha-androstane-17-one] | – | – | 102 | –
12 | C[C@]12CC[C@H](O)C[C@@H]1C[C@H](O)[C@@H]1[C@@H]2CC[C@]2(C)C(=O)CC[C@@H]12 [Steroid 7β-OH-ISOA, 3-beta, 7-beta-dihydroxy-5-alpha-androstane-17-one] | – | – | 68 | –
13 | CC(=O)[C@H]1CC[C@H]2[C@@H]3[C@@H](O)C=C4C[C@@H](O)CC[C@]4(C)[C@H]3CC[C@]12C [Steroid 7β-OH-PREG, 7-beta-hydroxy-pregnenolone] | – | – | 82 | –
